# Test results taken from PMC12788799, “Affinity-guided labeling reveals P2X7 nanoscale membrane redistribution during BV2 microglial activation” (eLife, 2026).
# Where a chain is given by its changes, count along the chain named.
# Key:
# Type in all cases: cell-based
# mouse P2X7 [1] = target: T1, mouse P2X7 (Mus musculus, UniProt Q9Z1M0); test: Competition:[…] blocks X7-uP labeling of endogenous P2X7 (pull-down western blot, confocal)
# T1 construct: gene P2rx7; endogenous P2X7 in BV2 cells
# T1 sequence (Q9Z1M0 1-595): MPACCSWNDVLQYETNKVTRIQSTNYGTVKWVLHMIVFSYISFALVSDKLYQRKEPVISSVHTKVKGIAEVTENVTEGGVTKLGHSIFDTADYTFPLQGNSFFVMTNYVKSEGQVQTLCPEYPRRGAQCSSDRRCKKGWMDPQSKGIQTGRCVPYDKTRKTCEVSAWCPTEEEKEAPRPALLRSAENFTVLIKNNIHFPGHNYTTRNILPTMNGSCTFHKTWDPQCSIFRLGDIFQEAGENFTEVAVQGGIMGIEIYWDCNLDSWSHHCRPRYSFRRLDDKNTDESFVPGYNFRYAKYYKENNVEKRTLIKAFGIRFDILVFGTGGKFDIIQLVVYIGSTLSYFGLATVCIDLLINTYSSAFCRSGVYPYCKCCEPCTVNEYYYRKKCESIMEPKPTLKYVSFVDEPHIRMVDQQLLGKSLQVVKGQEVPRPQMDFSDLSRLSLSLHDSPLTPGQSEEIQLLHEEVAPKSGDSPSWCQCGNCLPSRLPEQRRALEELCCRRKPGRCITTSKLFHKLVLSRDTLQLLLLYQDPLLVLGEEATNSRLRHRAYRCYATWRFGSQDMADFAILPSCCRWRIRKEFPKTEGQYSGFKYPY
# rat P2X7 (rP2X7) [2] = target: T2, rat P2X7 (rP2X7) (Rattus norvegicus, UniProt Q64663); test: Whole-cell patch-clamp, inhibition of BzATP-evoked currents at […] in HEK293T cells; also blocks X7-uP labeling; parameters: gene P2rx7
# T2 sequence (Q64663 1-595): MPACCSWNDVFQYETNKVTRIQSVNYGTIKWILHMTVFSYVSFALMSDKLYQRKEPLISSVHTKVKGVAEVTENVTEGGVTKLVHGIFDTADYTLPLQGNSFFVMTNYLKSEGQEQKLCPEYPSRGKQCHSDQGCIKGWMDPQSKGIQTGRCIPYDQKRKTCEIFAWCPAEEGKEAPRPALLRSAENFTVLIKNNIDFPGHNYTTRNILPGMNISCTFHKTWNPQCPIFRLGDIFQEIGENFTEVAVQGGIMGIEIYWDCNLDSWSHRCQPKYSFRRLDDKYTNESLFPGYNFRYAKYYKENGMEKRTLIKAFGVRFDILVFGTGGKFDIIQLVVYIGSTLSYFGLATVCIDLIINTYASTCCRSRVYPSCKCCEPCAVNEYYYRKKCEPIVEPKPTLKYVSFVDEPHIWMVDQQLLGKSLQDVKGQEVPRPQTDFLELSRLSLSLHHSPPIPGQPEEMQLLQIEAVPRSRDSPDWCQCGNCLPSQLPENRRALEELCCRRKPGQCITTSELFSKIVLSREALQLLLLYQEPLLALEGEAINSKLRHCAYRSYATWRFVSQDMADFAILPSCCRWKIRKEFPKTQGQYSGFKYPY
# mouse P2X7 [3] = target: T1, mouse P2X7; test: Covalent biotinylation of endogenous receptor with […] X7-uP, pull-down western blot and confocal imaging, blocked by AZ10606120 or A740003
# rat P2X7 (rP2X7) [4] = target: T3, rat P2X7 (rP2X7) (Rattus norvegicus, UniProt Q64663, K82A/K117A); test: Whole-cell patch-clamp, reversible inhibition of BzATP-evoked currents by […] X7-uP in HEK293T cells
# T3 construct: gene P2rx7; P2X7-mScarlet background
# T3 sequence (Q64663 1-595 K82A/K117A): T2 sequence (Q64663 1-595) with K82A, K117A
# rat P2X7 (rP2X7) [5] = target: T2, rat P2X7 (rP2X7); test: Kinetics of covalent biotinylation in HEK293T cells (pull-down western blot); whole-cell patch-clamp inhibition of BzATP currents; parameters: gene P2rx7; P2X7c-myc
SMILES,Competition: 10 μM blocks X7-uP labeling of endogenous P2X7 (pull-down western b) (mouse P2X7 [1]),inhibition at 1 µM (rat P2X7 (rP2X7) [2]),% labeled (mouse P2X7 [3]),"Whole-cell patch-clamp, reversible inhibition of BzATP-evoked currents by 0.5 μM (rat P2X7 (rP2X7) [4])",Kd (rat P2X7 (rP2X7) [5])
O=C(CC12CC3CC(CC(C3)C1)C2)Nc1cccc2nc(NCCNCCO)ccc12 [AZ10606120],This band disappeared upon co-incubation with AZ10606120 or A740003,99.7%,–,–,–
"N#CCN(C(=O)CCOCCOCCOCCOCCNC(=O)CCCC[C@@H]1SC[C@@H]2NC(=O)N[C@@H]21)S(=O)(=O)c1ccc(C(=O)NCCNc2ccc3c(NC(=O)CC45CC6CC(CC(C6)C4)C5)cccc3n2)cc1 [X7-uP, N-(2-((5-(2-(adamantan-1-yl)acetamido)quinolin-2-yl)amino)ethyl)–4-(N-(cyanomethyl)-N-(17-oxo-21-((3aR,4R,6aS)–2-oxo-hexahydro-1H-thieno[3,4-d]imidazol-4-yl)–4,7,10,13-tetraoxa-16-azahenico-sanoyl)sulfamoyl)benzamide]",–,–,80 % labeled,the double K82A/K117A mutant did not affect the ability of X7-uP to inhibit BzATP-evoked currents,7.3 µM
